From ChEMBL document CHEMBL1201862, “PubChem BioAssay data set” (2004)
Calls of active or inactive are those of the source.

Legend:
[1] = target: Intestinal-type alkaline phosphatase (Mus musculus, UniProt P24822); assay: PubChem AID 488874; format: functional
[2] = target: T1, Intestinal-type alkaline phosphatase (Homo sapiens, UniProt P09923); assay: human IAP inhibitors, dose response, biochemical, luminescent, uHTS hits, set 2 (AID 488793); format: functional
[3] = target: T1, Intestinal-type alkaline phosphatase; assay: Dose Response confirmation of uHTS hits from a small molecule inhibitors of human intestinal alkaline phosphatase via a luminescent assay. [Related pubchem assays (depositor defined):AID2544, AID2574]; format: functional
[4] = target: T2, Alkaline phosphatase, tissue-nonspecific isozyme (Homo sapiens, UniProt P05186); assay: inhibition of tissue-nonspecific alkaline phosphatase – biochemical, dose response (AID 488882); format: functional
T2 sequence (P05186 whole entry): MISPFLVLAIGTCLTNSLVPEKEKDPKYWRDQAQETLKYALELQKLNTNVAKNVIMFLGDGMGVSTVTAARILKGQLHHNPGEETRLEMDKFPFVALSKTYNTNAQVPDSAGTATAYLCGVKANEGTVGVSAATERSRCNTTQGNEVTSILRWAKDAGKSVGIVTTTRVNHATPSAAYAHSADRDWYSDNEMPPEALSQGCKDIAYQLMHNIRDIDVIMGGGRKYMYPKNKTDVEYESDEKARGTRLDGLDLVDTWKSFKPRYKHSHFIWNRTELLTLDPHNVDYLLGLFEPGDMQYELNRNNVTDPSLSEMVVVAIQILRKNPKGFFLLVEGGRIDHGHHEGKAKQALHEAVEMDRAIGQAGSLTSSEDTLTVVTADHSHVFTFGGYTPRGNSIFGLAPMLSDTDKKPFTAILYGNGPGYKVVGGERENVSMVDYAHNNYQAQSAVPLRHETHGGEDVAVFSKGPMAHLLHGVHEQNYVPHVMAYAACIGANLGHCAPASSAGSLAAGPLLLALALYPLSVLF

[5] = Luminescence Cell-Based Dose Retest to Confirm Inhibitors of Cancer Stem Cells. [Related pubchem assays (depositor defined):AID2717, AID2721]; format: functional; details: Homo sapiens
[6] = cytotoxicity in HMLE control line with eGFP shRNA, dose response, counter-screen for HMLE_sh_ECad selective toxicity project, cell-based, HMLE_sh_eGFP, luminescence (AID 463074); format: functional, Homo sapiens;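 also: HMLE human mammary epithelial cells expressing control shRNA against eGFP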
Large T antigen = Large T antigen (Simian virus 40, UniProt P03070); format: functional, Betapolyomavirus macacae;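 also: Confirmatory-stage PubChem screen for compounds that inhibit SV40 T antigen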
[7] = target: Lysine-specific demethylase 4C (Homo sapiens, UniProt Q9H3R0); assay: GASC-1 (JMJD2C) histone demethylase inhibitors, dose response, biochemical, DELFIA europium, cherry-picked samples (AID 488835); format: functional
Genome polyprotein = Genome polyprotein (dengue virus type 2, UniProt P29990); assay: Dengue-2 NS5 methyltransferase inhibitors, primary screen, biochemical, confirmation dose response (AID 588689); format: functional
[8] = target: T3, Polyadenylate-binding protein 1 (Homo sapiens, UniProt P11940); assay: PABP1 MLLE–PAM2 interaction inhibitors, dose response, miRNA deadenylation inhibitor project, biochemical, fluorescence polarization, Cy5-PAM2 peptide, secondary (AID 602260); format: functional; details: read-out: IC50_Mean
[9] = target: T3, Polyadenylate-binding protein 1; assay: PABP1 MLLE–PAM2 binding inhibitor potency, dose response, biochemical, fluorescence polarization, FITC-PAM2 peptide (AID 602259); format: functional; details: read-out: IC50_Mean
Exodeoxyribonuclease V = Exodeoxyribonuclease V (Escherichia coli (strain K12), UniProt P04993+P07648+P08394); assay: E. coli RecBCD inhibitors, dose response, counter-screen for AddAB inhibitor project, absorbance, V66 E. coli, mutant T4 phage (AID 492957); format: functional, cell-based, Escherichia coli str. K-12 substr. MG1655
[10] = Counterscreen for AddAB inhibitors: absorbance-based bacterial cell-based high throughput dose response assay for inhibitors of bacterial viability. [Related pubchem assays (depositor defined):AID435030, AID449728, AID449731, AID488942, AID488955, AID488956]; format: functional
Keap1/Nrf2 = Keap1/Nrf2 (Homo sapiens, UniProt Q14145); assay: Keap1-Nrf2 protein-protein interaction inhibitors, dose response, biochemical, fluorescence polarization, cherry-picked samples (AID 588683)
[11] = target: T4, Apoptotic protease-activating factor 1 (Homo sapiens, UniProt O14727); assay: activation of Apaf-1 mediated apoptosis – fluorescent, uHTS hits, dose response (AID 588554); format: functional
T4 sequence (O14727 whole entry): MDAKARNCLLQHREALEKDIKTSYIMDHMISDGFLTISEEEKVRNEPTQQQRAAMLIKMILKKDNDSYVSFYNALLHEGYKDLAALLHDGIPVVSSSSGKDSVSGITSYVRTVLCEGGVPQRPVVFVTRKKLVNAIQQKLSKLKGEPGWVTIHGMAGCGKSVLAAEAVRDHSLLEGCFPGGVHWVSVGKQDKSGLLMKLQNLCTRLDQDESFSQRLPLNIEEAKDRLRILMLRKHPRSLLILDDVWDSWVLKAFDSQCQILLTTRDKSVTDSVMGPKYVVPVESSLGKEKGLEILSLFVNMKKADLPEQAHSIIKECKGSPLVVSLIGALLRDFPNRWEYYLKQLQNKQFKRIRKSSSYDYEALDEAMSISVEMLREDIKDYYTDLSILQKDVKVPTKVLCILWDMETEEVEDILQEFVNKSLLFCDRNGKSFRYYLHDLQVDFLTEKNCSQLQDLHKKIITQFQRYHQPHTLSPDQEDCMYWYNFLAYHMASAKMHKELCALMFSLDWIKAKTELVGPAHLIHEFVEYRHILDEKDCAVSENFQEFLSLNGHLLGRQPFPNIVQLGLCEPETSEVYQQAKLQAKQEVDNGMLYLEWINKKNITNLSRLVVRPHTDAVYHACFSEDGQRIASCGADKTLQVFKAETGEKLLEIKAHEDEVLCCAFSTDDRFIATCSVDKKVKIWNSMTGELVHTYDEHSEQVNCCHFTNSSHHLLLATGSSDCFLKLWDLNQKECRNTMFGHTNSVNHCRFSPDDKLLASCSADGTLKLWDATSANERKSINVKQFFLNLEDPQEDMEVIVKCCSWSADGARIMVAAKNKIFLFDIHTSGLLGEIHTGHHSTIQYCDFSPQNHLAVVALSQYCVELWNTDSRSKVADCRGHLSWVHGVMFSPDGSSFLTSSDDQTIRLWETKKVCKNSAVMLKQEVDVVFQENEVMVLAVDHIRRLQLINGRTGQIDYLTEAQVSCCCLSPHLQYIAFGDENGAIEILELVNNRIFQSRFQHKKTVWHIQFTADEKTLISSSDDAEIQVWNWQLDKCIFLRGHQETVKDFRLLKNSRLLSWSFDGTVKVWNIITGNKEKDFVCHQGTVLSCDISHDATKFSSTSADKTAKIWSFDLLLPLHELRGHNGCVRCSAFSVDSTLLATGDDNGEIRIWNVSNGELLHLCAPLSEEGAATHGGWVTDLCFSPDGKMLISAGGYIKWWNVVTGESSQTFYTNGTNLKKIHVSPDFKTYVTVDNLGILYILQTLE

cells [12] = format: functional, cell-based
cells [13] = format: functional, cell-based; remark: listed apart in the source
Cysteine protease ATG4B [14] = target: T5, Cysteine protease ATG4B (Homo sapiens, UniProt Q9Y4P1); format: functional;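 also: Fluorescence-based dose-response confirmation assay measuring inhibition of ATG4B activity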
T5 sequence (Q9Y4P1 whole entry): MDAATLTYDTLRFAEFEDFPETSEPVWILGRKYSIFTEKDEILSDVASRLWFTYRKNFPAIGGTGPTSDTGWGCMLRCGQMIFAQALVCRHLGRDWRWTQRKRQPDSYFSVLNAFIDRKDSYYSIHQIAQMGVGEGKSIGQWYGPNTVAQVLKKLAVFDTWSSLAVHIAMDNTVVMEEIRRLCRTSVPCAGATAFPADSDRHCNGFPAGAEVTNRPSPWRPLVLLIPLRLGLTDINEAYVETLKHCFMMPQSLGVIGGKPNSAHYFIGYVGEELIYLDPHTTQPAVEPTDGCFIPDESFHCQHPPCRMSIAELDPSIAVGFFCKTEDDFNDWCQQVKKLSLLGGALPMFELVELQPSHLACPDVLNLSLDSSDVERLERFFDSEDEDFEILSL

Phospholipase A2 [15] = target: T6, Phospholipase A2 (Homo sapiens, UniProt P04054); assay: PLA2 enzyme inhibitors, dose response, counter-screen for ATG4B inhibitor project, biochemical, set 2 (AID 588586); format: functional
Phospholipase A2 [16] = target: T6, Phospholipase A2; format: functional
Cysteine protease ATG4B [17] = target: T5, Cysteine protease ATG4B; assay: ATG4B protease inhibitors, dose response, biochemical, fluorescence, set 2 (AID 588584); format: functional
Cytochrome P450 1A2 = target: T7, Cytochrome P450 1A2 (Homo sapiens, UniProt P05177);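 also: PubChem cytochrome P450 panel assay, CYP1A2 panel member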
T7 sequence (P05177 whole entry): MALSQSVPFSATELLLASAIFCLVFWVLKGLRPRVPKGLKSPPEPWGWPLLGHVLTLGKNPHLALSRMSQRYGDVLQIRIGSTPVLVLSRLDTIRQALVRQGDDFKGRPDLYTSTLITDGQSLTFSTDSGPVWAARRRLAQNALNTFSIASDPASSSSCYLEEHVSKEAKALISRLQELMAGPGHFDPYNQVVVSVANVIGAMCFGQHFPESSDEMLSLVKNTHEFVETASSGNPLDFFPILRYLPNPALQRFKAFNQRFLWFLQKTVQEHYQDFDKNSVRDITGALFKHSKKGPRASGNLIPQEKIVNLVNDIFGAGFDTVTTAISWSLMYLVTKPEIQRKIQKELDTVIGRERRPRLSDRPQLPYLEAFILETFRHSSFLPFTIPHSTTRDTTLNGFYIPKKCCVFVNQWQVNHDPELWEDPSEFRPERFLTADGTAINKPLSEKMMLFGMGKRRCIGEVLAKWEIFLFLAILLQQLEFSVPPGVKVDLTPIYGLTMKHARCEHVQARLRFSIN

[18] = target: T8, Mannose-6-phosphate isomerase (Homo sapiens, UniProt P34949); assay: PMI enzyme inhibitors, confirmation, biochemical, fluorescence intensity (AID 1535)
T8 sequence (P34949 whole entry): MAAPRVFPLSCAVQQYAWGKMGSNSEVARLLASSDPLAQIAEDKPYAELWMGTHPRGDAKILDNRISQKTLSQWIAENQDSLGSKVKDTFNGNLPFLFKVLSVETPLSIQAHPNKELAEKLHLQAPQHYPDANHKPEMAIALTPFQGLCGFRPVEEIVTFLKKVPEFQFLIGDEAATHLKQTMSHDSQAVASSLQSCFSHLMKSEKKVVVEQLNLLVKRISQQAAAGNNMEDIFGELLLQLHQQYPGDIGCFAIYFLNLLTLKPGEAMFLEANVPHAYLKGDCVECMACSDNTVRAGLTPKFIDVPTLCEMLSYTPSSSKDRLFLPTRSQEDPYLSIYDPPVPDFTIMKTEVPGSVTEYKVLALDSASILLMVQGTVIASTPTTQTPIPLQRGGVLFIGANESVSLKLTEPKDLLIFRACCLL

Phosphomannomutase 2 = Phosphomannomutase 2 (Homo sapiens, UniProt O15305); assay: Counter screen SAR assay for PMM2 inhibitors via a fluorescence intensity assay. [Related pubchem assays (depositor defined):AID1545, AID1574]
Cytochrome P450 2C19 = Cytochrome P450 2C19 (Homo sapiens, UniProt P33261); assay: Cytochrome panel assay with activity outcomes. Panel member name: p450-cyp2c19 Compounds with AC50 equal or less than 10 uM are considered active; format: functional
Cytochrome P450 2D6 = Cytochrome P450 2D6 (Homo sapiens, UniProt P10635);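 also: CYP2D6 member of a cytochrome P450 panel assay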
Sequence of Cytochrome P450 2D6 (P10635 whole entry): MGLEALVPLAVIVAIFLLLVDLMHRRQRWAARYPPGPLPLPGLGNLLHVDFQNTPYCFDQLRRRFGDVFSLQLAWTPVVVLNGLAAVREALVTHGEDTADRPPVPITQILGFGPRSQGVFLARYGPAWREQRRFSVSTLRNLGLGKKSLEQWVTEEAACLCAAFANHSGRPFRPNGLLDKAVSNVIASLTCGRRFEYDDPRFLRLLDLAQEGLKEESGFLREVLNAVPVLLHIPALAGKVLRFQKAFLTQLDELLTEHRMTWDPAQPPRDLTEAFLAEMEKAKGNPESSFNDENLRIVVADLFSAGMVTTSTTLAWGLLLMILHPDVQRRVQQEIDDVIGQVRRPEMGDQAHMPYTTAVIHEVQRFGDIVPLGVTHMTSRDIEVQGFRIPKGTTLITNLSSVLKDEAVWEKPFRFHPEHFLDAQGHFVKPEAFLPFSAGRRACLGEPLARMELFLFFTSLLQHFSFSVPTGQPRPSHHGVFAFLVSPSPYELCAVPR

T3 sequence (P11940 whole entry): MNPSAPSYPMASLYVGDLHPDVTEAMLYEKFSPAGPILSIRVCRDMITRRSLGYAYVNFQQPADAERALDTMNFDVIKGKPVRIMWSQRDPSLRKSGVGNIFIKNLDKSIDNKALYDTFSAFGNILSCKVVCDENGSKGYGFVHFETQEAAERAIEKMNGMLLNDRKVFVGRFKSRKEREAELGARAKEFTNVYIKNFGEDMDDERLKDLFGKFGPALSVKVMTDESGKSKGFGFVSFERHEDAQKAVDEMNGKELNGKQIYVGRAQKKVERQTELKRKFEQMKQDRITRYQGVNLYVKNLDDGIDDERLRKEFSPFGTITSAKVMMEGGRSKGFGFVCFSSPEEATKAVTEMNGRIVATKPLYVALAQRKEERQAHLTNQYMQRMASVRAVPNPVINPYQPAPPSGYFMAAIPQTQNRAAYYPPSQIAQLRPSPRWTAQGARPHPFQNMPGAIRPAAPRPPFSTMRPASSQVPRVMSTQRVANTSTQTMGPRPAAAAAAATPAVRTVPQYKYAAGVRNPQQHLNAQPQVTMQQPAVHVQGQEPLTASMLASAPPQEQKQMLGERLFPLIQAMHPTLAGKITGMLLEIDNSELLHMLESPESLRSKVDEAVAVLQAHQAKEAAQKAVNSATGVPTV
T6 sequence (P04054 whole entry): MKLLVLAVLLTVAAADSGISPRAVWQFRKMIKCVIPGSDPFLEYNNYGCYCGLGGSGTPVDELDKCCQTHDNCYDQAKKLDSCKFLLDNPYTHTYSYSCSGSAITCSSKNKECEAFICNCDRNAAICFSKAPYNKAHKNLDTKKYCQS
T1 sequence (P09923 whole entry): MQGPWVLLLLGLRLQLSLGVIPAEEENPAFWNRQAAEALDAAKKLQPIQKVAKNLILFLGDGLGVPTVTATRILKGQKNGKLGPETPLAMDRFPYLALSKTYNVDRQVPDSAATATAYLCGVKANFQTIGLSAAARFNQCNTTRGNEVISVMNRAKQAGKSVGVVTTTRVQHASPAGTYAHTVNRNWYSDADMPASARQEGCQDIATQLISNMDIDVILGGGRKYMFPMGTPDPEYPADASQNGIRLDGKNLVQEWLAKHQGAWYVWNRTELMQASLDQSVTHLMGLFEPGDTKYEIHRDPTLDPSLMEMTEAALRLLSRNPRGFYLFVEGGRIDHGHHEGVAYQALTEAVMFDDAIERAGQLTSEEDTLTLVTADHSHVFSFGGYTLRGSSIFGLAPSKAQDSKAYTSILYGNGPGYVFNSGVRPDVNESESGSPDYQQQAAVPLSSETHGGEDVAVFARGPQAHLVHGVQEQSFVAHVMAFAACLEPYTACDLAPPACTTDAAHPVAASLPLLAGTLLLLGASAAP
Sequence of Intestinal-type alkaline phosphatase (Mus musculus, UniProt P24822) (P24822 whole entry): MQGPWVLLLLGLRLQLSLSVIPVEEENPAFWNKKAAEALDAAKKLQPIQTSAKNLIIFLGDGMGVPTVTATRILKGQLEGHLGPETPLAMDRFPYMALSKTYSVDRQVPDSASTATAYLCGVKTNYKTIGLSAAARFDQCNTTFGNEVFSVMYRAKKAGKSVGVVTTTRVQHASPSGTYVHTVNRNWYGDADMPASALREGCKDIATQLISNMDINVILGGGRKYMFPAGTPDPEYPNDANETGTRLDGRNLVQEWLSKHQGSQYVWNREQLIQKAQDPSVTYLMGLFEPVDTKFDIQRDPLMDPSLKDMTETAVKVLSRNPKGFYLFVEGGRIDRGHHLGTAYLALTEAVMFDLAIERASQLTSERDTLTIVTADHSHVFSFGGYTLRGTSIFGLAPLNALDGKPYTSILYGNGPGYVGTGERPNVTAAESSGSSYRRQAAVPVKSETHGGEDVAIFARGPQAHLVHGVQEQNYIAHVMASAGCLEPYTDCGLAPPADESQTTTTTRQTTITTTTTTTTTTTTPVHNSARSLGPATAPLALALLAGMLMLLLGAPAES
Sequence of Large T antigen (P03070 whole entry): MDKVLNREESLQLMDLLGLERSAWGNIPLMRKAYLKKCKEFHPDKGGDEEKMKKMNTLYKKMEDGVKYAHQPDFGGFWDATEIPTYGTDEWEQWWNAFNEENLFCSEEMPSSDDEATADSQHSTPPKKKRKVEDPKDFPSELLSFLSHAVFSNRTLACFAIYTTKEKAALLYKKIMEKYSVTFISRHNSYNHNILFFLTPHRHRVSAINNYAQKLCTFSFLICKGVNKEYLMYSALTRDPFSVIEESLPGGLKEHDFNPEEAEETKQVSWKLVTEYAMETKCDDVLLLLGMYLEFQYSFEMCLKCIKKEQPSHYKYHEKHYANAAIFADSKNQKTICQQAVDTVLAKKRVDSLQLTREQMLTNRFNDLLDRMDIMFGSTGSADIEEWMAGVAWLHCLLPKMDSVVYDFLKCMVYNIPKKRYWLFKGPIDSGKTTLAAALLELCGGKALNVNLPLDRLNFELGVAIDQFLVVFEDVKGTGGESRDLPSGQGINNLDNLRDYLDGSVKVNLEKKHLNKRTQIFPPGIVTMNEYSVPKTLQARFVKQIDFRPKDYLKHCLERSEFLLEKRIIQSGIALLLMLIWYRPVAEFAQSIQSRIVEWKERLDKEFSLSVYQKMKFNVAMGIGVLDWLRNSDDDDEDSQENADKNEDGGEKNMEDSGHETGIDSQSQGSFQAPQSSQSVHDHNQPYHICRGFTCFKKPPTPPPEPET
Sequence of Genome polyprotein (P29990 2492-3391 limits assumed): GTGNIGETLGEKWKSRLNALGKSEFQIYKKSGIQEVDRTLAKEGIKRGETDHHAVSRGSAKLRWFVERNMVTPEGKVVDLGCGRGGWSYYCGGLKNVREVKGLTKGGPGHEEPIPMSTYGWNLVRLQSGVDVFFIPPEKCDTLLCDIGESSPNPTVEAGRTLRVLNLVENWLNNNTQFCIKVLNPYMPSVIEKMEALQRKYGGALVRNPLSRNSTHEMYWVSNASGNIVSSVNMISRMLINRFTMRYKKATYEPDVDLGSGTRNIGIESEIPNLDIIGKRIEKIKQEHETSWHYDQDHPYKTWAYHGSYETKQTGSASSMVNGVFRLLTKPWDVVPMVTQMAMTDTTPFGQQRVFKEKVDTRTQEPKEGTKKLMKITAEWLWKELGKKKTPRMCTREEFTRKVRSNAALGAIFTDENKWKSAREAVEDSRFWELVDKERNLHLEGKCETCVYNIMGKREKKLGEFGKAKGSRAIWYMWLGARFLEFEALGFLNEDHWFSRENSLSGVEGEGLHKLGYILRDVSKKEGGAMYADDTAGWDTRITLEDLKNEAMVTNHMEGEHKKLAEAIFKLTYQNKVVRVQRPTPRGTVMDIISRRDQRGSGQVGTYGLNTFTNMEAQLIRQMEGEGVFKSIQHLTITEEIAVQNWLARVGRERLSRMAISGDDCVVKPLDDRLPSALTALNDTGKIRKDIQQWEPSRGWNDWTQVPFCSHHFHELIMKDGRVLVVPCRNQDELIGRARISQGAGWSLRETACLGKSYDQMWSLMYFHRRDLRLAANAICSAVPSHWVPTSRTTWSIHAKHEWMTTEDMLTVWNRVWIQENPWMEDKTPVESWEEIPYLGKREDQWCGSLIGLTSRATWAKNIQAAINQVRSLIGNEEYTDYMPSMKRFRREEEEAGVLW
Sequence of Cytochrome P450 2C19 (P33261 whole entry): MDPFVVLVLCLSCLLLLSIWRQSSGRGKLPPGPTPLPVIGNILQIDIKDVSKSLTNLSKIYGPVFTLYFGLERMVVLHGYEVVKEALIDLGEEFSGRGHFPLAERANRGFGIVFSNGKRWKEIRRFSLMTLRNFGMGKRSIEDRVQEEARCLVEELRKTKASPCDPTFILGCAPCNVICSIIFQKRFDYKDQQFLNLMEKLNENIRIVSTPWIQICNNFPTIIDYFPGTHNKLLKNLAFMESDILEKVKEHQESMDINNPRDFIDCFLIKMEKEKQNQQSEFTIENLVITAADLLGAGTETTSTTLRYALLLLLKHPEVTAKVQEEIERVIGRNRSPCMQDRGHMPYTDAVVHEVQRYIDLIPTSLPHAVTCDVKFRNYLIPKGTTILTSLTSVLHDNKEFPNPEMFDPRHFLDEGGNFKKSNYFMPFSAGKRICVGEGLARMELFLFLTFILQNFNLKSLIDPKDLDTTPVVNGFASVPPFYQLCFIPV
Sequence of Phosphomannomutase 2 (O15305 whole entry): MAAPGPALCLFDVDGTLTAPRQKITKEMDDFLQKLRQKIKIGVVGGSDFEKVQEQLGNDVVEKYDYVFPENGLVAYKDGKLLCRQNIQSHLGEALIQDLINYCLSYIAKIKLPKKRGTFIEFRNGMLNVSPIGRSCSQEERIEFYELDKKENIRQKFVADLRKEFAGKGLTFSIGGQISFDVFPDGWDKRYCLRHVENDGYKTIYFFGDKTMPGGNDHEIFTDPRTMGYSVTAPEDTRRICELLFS

C/C(=N/Nc1ccccc1[N+](=O)[O-])c1ccc([N+](=O)[O-])cc1
IC50 [1]: > 100 µM (inactive) | IC50 [2]: 77.3 µM (active) | IC50 [3]: 69.6 µM (inactive) | IC50 [4]: > 100 µM (inactive)

O=C(Nc1ccc(OCc2ccccc2)cc1)c1cccs1
AC50 [5]: 1.98 µM (active) | AC50 [6]: 62.6 µM (active)

O=C1NC(=O)C(=Cc2csc3ccccc23)C(=O)N1
IC50 (Large T antigen): 59.7 µM (active) | AC50 [7]: 6.34 µM (active) | IC50 (Genome polyprotein): 26.9 µM (active) | IC50 [8]: > 66 µM (inactive) | IC50 [9]: > 66 µM (inactive)

O=C1CCC(=O)N(O)CCCCCNC(=O)CCC(=O)N(O)CCCCNC(=O)CCC(=O)N(O)CCCCCN1 [DESMETHYLENYLNOCARDAMINE]
IC50 (Exodeoxyribonuclease V): > 119 µM (inactive) | IC50 [10]: > 119 µM (inactive)

NC(=O)c1cc2ccc(O)cc2o/c1=N\Cc1ccccc1
AC50 (Keap1/Nrf2): 18.7 µM (active)

CC(/C=C\c1cccnc1)=C/C(=O)O
EC50 [11]: 11 µM (active)

Cc1cc(/C=N/n2c(COc3ccccc3)nc3ccccc3c2=O)c(O)c([N+](=O)[O-])c1
EC50 (cells [12]): > 350 µM (not active) | EC50 (cells [13]): 31.7 µM (active) | AC50 [5]: 20.9 µM (active) | IC50 (Cysteine protease ATG4B [14]): 17.2 µM (active) | IC50 (Phospholipase A2 [15]): 10.5 µM (active) | IC50 (Phospholipase A2 [16]): 13.1 µM (active) | IC50 (Cysteine protease ATG4B [17]): 22.8 µM (inactive)

O=S(=O)(c1ccccc1)N1CCC[C@@]2(CCN(Cc3cc(C(F)(F)F)cc(C(F)(F)F)c3)C2)C1
AC50 (Cytochrome P450 1A2): inconclusive

COc1ccc(C)cc1/N=c1\ssnc1Cl
IC50 [18]: 22.5 µM (active) | IC50 (Phosphomannomutase 2): > 100 µM (inactive)

CC(CC(=O)O)(CC(=O)O)C(=O)O
AC50 (Cytochrome P450 2C19): inconclusive | AC50 (Cytochrome P450 2D6): inconclusive
